Values belong to the molecule of their own block, whether it stands above or below them.
What was measured:
[1] = tested on: OVCAR3-WT, OVCAR3-CP, OVCAR4-WT and OVCAR4-CP cells; test: 10-day colony formation assay with ALM201 (FIG. 30c); type: cell-based, human; details: OVCAR3 and OVCAR4 cells (FIG. 30c)
Protocol: (§1) Cells were seeded at predetermined densities, 24 hours later treated with drug, which was replenished every 3-4 days. After 10 days, cells were washed with PBS, fixed in methanol, stained with crystal violet and colonies counted. The surviving fraction (SF) for a given dose was calculated and dose-response curves plotted and IC50 generated using Graph Pad Prism™ 5. Receiver operator curves (ROC) were plotted by dicotomising the IC50 values based on the median of the IC50 and defining the higher IC50 values as resistant and the lower IC50 values as sensitive. The gene signatures associated with the cell lines were plotted based on sensitive and resistant cells. Additionally ROCs were plotted by dicotomising the signature scores based on the median of the scores and defining the higher signature score as signature positive and the lower signature scores as signature negative. The IC50s associated with the cell lines were plotted based on signature positive and signature negative cells.
OVCAR3 and OVCAR4 cells were trypsinised and relevant cell numbers were seeded into P90 plates. Cells were allowed to adhere overnight. The following day media was removed and replaced with media containing 25 nM cisplatin. The concentration of cisplatin was increased every 2 weeks, doubling the concentration at every increment. […]

Kuramochi cells = test: Western blot of EMT and MAPK pathway markers, Kuramochi cells; type: cell-based; details: western blot (FIG. 30a)
[2] = tested on: OVCAR3 platinum resistant cell line; test: xCELLigence invasion assay; type: cell-based, human; details: 0.1 nM, 1 nM and 10 nM (p=0.0211, p=0.0026, p=0.3373) (FIG. 30d)
Protocol: The invasion assay was performed using the xCELLigence RTCA DP system and carried out with CIM-plate 16 (ACEA bioscience).
Normal cell media growth conditions (RPMI 1640, 1% L-Glut and 20% FCS) was the chemoattractant condition used in the bottom chamber. 160 μl of the chemoattractant was added to each bottom chamber of a CIM-plate 16. The CIM-Plate 16 is assembled by placing the top chamber onto the bottom chamber and snapping the two together. 20 μl Matrigel growth factor reduced (GFR) (phenol-red free) basement membrane matrix (Cornig, ref: 356231) was diluted in 400 μl optimem (serum free) giving a final working concentration of GFR Matrigel of 5%. […]
The protocol is optimized for the two paired cancer cell lines: OVCAR3, OVCAR4 parental and OVCAR3, OVCAR4 platinum resistant cell lines. […] Once the CIM-Plate 16 has been equilibrated, it is placed in the RTCA DP station and the background cell-index values are measured. […] The CIM-Plate 16 is placed in the RTCA DP station and migration is monitored every 5 minutes for several hours.
Each experimental condition was performed in triplicate. For quantification of the migration rate, the slope of the curve was used to determine the rate if change in cell index. The average and standard deviation slope values were then quantified relative to that at the control condition.

[3] = tested on: OVCAR3 platinum resistant cell line; test: xCELLigence migration assay; type: cell-based, human; details: 0.1 nM, 1 nM and 10 nM (p=0.08544, p=0.015522, p=0.036739) (FIG. 30d)
Protocol: The migration assay was performed using the xCELLigence RTCA DP system and carried out with CIM-plate 16 (ACEA Bioscience). Endothelial progenitor cell conditioned media, fresh endothelial media with growth factors (VEGF, IGF-1, bFGF, EGF) with 10% foetal bovine serum (FBS) and endothelial media with 10% foetal bovine serum (FBS) only, were the three chemo-attractant conditions used in the bottom chamber. 160 μl of the chemo-attractant was added to each bottom chamber of a CIM-plate 16. The CIM-Plate 16 is assembled by placing the top chamber onto the bottom chamber and snapping the two together. 30 μl pf serum-free medium is placed in the top chamber to hydrate and pre-incubate the membrane for 2 hours in the CO2 incubator at 37° C. before obtaining a background measurement. The protocol is optimised for the two paired cancer cell lines: OVCAR3, OVCAR4 parental and OVCAR3, OVCAR4 platinum resistant cell lines. […] Once the CIM-Plate 16 has been equilibrated, it is placed in the RTCA DP station and the background cell-index values are measured. […] The CIM-Plate 16 is placed in the RTCA DP station and migration is monitored every 5 minutes for several hours. […] For quantification of the migration rate, the slope of the curve was used to determine the rate if change in cell index. The average and standard deviation slope values were then quantified relative to the controls.

[4] = tested on: OVCAR3 cisplatin resistant cell line; test: Western blot of EMT and MAPK pathway markers, OVCAR3 cisplatin resistant cells; type: cell-based, human; details: 1 nM and 10 nM, 24 hour treatment; western blot (FIG. 30b)
OVCAR3-WT cells = test: 10-day colony formation assay, OVCAR3-WT (cisplatin sensitive/naive); type: cell-based, human
Protocol: as §1

OVCAR3-CP cells = test: 10-day colony formation assay, OVCAR3-CP (cisplatin resistant); type: cell-based, human; details: for fold change: cisplatin-resistant OVCAR3 relative to OVCAR3 cisplatin-naïve, colony formation
Protocol: as §1, with “negative cells. OVCAR3 and OVCAR4 cells were trypsinised and relevant cell numbers were seeded into P90 plates. Cells were allowed to adhere overnight. The following day media was removed and replaced with media containing 25 nM cisplatin. The concentration of cisplatin was increased every 2 weeks, doubling the concentration at every increment. Batches of cells were frozen every two weeks upon increasing the concentration of cisplatin. Once cells were stably growing at 200 nM cisplatin, sensitivity to cisplatin was tested by clonogenic assay. Cells were continuously grown in 200 nM cisplatin.” for “negative cells.”

[5] = tested on: OVCAR3 and OVCAR4 cisplatin-resistant cells; test: CellTiter Glo cell viability assay; type: cell-based; details: Homo sapiens; 48 hour time point; cell line not stated in legend (FIG. 43A)
Protocol: Cells were trysanised and counted using the Countess™ Automated Cell Counter. 5,000 cells were seeded into each well of a 96 well plate. Cells were allowed to adhere overnight and were then treated with titrated concentrations of cisplatin, cedirianib and nintedanib (10 μM to 0.005 μM concentration). […] The 96 well plate was allowed to stand at room temperature for 20-30 mins. In the meantime the CellTiter-Glo Luminescent was allowed to thaw from the −20 freezer. Following the 20-30 minute incubation, 75 μl of the CellTiter-Glo Luminescent was added per well, this was then shaken for 2 minutes and then allowed to stand for 10 minutes. The analysis was performed using the Bioscience BioTek plate reader.

[6] = tested on: OVCAR3 and OVCAR4 cisplatin-resistant cells; test: Western blot of VEGFa protein expression; type: cell-based, human; details: IC50 concentration; western blot (FIG. 43B)
[7] = tested on: relapsed platinum sensitive epithelial ovarian cancer; details: cited from earlier work
[8] = Homo sapiens, OVCAR-3, 240 h, OVCAR3 cisplatin-naïve, 10-day colony formation (FIG. 42)
[9] = Homo sapiens, OVCAR-3, 240 h, OVCAR3 cisplatin-resistant, 10-day colony formation (FIG. 42)

Molecule: IRQQPRDPPTETLELEVSPDPAS (listed as Homo sapiens) [ALM201]
proliferation capacity [1]: inhibited the proliferation capacity | EMT signalling (Kuramochi cells): reduced | MAPK signalling (Kuramochi cells): reduced | invasion potential [2]: inhibited | migration potential [3]: inhibited | EMT markers [4]: reversing EMT markers | MAPK pathway [4]: downregulation of the MAPK pathway

Molecule: N.N.[Cl][Pt][Cl] [cisplatin]
IC50 (OVCAR3-WT cells; OVCAR3-WT, cisplatin alone): 0.066 µM | IC50 (OVCAR3-WT cells; OVCAR3-WT, cisplatin with addition of 0.5 uM Trametinib): 0.033 µM | fold decrease in the IC50 (OVCAR3-WT cells; OVCAR3-WT, following addition of Trametinib to cisplatin): 2 fold | IC50 (OVCAR3-WT cells; cisplatin sensitive OVCAR3 cells, colony formation (FIG. 2a)): 0.066 µM | IC50 (OVCAR3-CP cells; OVCAR3-CP, cisplatin with addition of Trametinib): 0.06 µM | fold decrease in the IC50 (OVCAR3-CP cells; OVCAR3-CP, following addition of Trametinib to cisplatin): 4.8 fold | IC50 (OVCAR3-CP cells; cisplatin resistant OVCAR3 cells, colony formation (FIG. 2a)): 0.29 µM | fold difference in IC50 doses (OVCAR3-CP cells; cisplatin resistant vs cisplatin sensitive OVCAR3 cells): 4.4 fold

IC50 [5]: 9.1 µM | IC50 (OVCAR3-WT cells; [8]): > 10 µM | IC50 (OVCAR3-CP cells; [9]): 3.78 µM
Molecule: COC(=O)c1ccc2c(c1)NC(=O)/C2=C(\Nc1ccc(N(C)C(=O)CN2CCN(C)CC2)cc1)c1ccccc1 [Nintedanib]
fold change (OVCAR3-CP cells): 0.377 | expression of the VEGFR ligand, VEGFa [6]: downregulated

IC50 [5]: 5.57 µM | IC50 (OVCAR3-WT cells; [8]): 4.99 µM | IC50 (OVCAR3-CP cells; [9]): 1.19 µM
Molecule: COc1cc2c(Oc3ccc4[nH]c(C)cc4c3F)ncnc2cc1OCCCN1CCCC1 [Cediranib]
fold change (OVCAR3-CP cells): 0.2391 | expression of the VEGFR ligand, VEGFa [6]: downregulated | PFS ([7]; cediranib with platinum chemotherapy and maintenance (reference 9.4 months)): 11.4 months | overall survival ([7]; cediranib with platinum chemotherapy and maintenance (reference 17.6 months)): 20.3 months | HR for PFS ([7]; p-value=0.0022): 0.68 | HR for overall survival ([7]; p-value=0.0419): 0.70

Reference: patent US20190127805A1, “GENE SIGNATURES FOR CANCER DETECTION AND TREATMENT” (ALMAC DIAGNOSTICS LIMITED, priority 2016, published 2019)
